Assay results reported in ChEMBL document CHEMBL1201862, “PubChem BioAssay data set” (2004).
Activity calls are given as the source filed them.

Key:
[1] = system: INS1; experiment: INS-1E survival protection against cytokine death – cell-based, luminescence, retest, dose response (AID 449756); assay type: functional; conditions: Rattus norvegicus;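 note: cell death triggered by IL-1 beta plus TNF-alpha plus IFN-gamma mixture; protective hits raise ATP signal compared with cytokine alone wells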
[2] = general mammalian cell viability loss – inhibitor set, cherry-pick, set 2, cytotoxicity control for miR-122 modulator project, dose response (AID 720697); assay type: functional, cell-based
[3] = HEK-293T viability loss, compound-treated – cell-based, uHTS hits, cytotoxicity control for B/T-cell NF-kB inhibitor project, dose response (AID 489019); assay type: functional;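 note: IC50 reflects cytotoxicity as loss of cell viability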
[4] = microbe, parasite or virus in culture; assay type: functional; conditions: Mycobacterium tuberculosis
[5] = HIV-1 AD8 envelope cell-cell fusion blockers – cherry-pick, dose response (AID 652062); assay type: functional, cell-based;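 note: luciferase signal from cell-cell fusion driven by HIV-1 clade B AD8 Env; potency is for inhibitors of fusion seen as a drop in luminescence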
[6] = system: Jurkat; experiment: blockers of NF-kB activation in T cells – Jurkat, luciferase reporter, luminescence, B- and T-cell, dose response (AID 489004); assay type: functional, cell-based; conditions: Homo sapiens;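 note: NF-kB luciferase reporter Jurkat cells stimulated with PMA plus ionomycin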
[7] = target: Protein Wnt-3a (Mus musculus, UniProt P27467); experiment: antagonism of Wnt3a pathway luciferase reporter – Wnt-LIGHT cells, luminescence, selectivity assay for Gli-SUFU antagonist project, dose response (AID 651570); assay type: functional; conditions: read-out: IC50_Mean;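 note: Wnt-LIGHT reporter cells stimulated with conditioned medium from Wnt3a-producing cells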
Protein Wnt-3a, sequence (P27467 whole entry): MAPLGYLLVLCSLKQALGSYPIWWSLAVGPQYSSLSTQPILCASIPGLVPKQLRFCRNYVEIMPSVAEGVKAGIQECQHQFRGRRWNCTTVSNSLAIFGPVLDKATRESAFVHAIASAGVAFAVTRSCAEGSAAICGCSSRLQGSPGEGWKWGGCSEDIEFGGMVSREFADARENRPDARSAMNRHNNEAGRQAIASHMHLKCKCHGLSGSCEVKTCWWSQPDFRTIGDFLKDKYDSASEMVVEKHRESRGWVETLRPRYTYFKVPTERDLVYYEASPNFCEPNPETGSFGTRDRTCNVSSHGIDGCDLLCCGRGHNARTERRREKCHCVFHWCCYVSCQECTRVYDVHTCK

[8] = reduction of Shn3 3'UTR-driven luciferase in osteoblasts – cell-based, Clone20 osteoblasts, firefly luciferase, cherry-picked, dose response (AID 624132); assay type: functional;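 note: firefly luciferase luminescence from reporter carrying the Shn3 3'UTR in osteoblasts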
[9] = non-specific 3'UTR reporter inhibition in Clone20-Shn3RL – cell-based, Renilla luciferase, cherry-picked, counter-screen for Shn3 inhibitor project, dose response (AID 624133); assay type: functional
[10] = loss of viability in HepG2 cells – cell-based, CellTiter-Glo, cherry-picked, cytotoxicity control for Shn3 inhibitor project, dose response (AID 624134); assay type: functional
[11] = target: T1, COUP transcription factor 2 (Homo sapiens, UniProt P24468); experiment: Luminescence-based cell-based high throughput dose response assay to identify inhibitors of COUP-TFII (NR2F2).; assay type: functional;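 note: HEK293 cells transiently cotransfected with COUP-TFII expression vector and reporter; luciferase reporter luminescence driven by COUP-TFII from the pX2-168 reporter plasmid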
T1 sequence (P24468 whole entry): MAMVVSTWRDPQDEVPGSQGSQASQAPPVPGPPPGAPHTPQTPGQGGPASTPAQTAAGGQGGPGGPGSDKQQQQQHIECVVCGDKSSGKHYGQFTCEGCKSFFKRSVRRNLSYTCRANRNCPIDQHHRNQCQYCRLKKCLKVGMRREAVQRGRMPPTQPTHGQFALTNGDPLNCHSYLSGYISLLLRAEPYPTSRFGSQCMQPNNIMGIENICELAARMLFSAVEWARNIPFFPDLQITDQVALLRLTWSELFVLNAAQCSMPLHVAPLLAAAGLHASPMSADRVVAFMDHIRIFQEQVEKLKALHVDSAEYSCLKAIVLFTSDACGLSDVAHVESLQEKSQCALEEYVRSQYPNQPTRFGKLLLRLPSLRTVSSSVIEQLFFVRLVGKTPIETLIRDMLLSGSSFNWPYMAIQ

[12] = general mammalian cell viability loss – activator set, cherry-pick, cytotoxicity control for miR-122 modulator project, dose response (AID 720690); assay type: functional, cell-based;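 note: HEK293T human cells scored for general mammalian cytotoxicity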
[13] = target: Adenosylmethionine-8-amino-7-oxononanoate aminotransferase (Mycobacterium tuberculosis, UniProt P9WQ81); experiment: Mycobacterium tuberculosis BioA enzyme inhibitor Measured in Biochemical System Using Plate Reader - 2163-02_Inhibitor_Dose_CherryPick_Activity.; assay type: functional, Mycobacterium tuberculosis UT205
[14] = blockers of CAL PDZ–TMR peptide complex – biochemical, fluorescence polarization, untagged CAL PDZ, cherry-pick, set 2, dose response (AID 602254); assay type: functional
[15] = target: T2, ATP-dependent translocase ABCB1 (Homo sapiens, UniProt P08183); experiment: P-gp JC-1 efflux blockade concentration-response – Jurkat-DNR cells, flow cytometry, set 2, dose response (AID 504569); assay type: functional; conditions: read-out: EC50_MICROM_;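 note: potency of pump inhibitors that raise cellular JC-1 green fluorescence up to the nicardipine level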
T2 sequence (P08183 whole entry): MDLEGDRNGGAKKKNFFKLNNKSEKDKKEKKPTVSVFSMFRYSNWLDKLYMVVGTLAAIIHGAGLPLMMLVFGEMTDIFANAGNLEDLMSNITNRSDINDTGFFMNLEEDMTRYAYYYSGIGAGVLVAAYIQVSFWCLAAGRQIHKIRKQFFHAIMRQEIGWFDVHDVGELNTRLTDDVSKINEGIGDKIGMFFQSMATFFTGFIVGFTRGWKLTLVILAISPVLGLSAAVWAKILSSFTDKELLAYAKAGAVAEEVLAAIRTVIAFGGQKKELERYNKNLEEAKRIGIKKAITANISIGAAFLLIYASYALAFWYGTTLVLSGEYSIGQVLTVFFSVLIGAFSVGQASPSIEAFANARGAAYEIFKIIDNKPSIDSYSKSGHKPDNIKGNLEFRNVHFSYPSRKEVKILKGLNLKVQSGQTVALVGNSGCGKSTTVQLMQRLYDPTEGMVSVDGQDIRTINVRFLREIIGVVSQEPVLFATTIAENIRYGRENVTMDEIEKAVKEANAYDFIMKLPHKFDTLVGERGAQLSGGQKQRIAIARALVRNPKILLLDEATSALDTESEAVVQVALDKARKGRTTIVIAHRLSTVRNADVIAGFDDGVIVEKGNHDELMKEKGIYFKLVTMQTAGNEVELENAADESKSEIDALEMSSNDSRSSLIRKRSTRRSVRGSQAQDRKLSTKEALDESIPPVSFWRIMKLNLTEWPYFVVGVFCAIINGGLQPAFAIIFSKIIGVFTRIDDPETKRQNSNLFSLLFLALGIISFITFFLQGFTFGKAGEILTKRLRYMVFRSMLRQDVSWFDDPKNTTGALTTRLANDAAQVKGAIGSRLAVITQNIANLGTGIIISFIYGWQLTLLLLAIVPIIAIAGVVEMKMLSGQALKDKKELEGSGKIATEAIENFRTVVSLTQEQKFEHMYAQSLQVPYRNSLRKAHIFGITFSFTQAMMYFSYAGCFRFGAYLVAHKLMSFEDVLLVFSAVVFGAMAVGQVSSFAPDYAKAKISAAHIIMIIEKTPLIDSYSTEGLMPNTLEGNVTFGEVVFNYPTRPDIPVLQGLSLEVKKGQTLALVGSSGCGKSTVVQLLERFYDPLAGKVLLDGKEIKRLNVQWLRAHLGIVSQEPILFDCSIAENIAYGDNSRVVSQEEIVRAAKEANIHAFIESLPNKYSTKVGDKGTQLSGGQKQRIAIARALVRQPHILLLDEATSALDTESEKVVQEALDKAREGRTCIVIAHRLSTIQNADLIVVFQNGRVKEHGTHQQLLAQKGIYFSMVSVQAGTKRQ

[16] = target: T2, ATP-dependent translocase ABCB1; experiment: inhibition of BCRP-mediated JC-1 efflux – Ig-MXP3 cells, flow cytometry, set 2, dose response (AID 504566); assay type: functional; conditions: read-out: EC50_MICROM_;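 note: flow cytometry median green fluorescence of retained JC-1 dye; potency of efflux pump inhibition measured as rising substrate retention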
[17] = target: T3, Tyrosine-protein phosphatase non-receptor type 22 (Homo sapiens, UniProt Q9Y2R2); experiment: PTPN22 enzyme inhibitors – biochemical, fluorescence, LYP catalytic domain, selectivity assay for LMPTP inhibitor project, dose response (AID 652006); assay type: functional; conditions: read-out: IC50_Mean
T3 sequence (Q9Y2R2 whole entry): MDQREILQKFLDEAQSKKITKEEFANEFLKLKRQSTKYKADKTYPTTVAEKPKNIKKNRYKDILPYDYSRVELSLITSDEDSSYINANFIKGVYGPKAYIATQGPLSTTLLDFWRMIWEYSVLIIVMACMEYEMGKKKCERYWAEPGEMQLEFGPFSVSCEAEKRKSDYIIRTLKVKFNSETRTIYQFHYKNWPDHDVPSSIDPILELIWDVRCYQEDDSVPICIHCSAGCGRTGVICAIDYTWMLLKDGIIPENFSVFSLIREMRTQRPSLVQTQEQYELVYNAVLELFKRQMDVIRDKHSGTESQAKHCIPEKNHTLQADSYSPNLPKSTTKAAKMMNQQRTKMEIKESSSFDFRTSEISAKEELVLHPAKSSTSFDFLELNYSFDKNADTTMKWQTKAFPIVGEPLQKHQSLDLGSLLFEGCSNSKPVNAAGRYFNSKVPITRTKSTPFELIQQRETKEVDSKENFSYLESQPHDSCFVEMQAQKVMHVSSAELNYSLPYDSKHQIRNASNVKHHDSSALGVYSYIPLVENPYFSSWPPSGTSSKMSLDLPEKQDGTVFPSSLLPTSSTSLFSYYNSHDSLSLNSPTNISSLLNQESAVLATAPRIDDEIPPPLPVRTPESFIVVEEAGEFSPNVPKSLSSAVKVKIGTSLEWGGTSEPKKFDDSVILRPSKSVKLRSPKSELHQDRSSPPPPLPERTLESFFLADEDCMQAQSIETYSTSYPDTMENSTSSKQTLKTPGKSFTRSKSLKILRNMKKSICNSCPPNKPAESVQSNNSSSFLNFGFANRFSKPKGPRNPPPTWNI

[18] = target: T4, Carboxy-terminal domain RNA polymerase II polypeptide A small phosphatase 1 (Homo sapiens, UniProt Q9GZU7); experiment: CTDSP1 inhibitors, concentration-response, biochemical, absorbance readout, ultra-high-throughput screen actives (AID 540297); assay type: functional
T4 sequence (Q9GZU7 whole entry): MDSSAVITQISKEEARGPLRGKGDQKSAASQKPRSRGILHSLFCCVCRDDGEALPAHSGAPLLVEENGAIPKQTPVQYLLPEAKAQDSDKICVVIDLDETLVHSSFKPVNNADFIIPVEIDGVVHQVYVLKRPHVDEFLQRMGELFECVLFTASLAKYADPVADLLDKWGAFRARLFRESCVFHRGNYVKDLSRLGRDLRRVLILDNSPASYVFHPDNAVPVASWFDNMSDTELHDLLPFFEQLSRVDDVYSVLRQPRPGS

[19] = target: T5, Voltage-gated N-type calcium channel alpha-1B subunit/Amyloid beta A4 precursor protein-binding family A member 1 (Homo sapiens, UniProt Q00975+Q02410); assay type: protein assay
T5 sequence (Q00975 whole entry): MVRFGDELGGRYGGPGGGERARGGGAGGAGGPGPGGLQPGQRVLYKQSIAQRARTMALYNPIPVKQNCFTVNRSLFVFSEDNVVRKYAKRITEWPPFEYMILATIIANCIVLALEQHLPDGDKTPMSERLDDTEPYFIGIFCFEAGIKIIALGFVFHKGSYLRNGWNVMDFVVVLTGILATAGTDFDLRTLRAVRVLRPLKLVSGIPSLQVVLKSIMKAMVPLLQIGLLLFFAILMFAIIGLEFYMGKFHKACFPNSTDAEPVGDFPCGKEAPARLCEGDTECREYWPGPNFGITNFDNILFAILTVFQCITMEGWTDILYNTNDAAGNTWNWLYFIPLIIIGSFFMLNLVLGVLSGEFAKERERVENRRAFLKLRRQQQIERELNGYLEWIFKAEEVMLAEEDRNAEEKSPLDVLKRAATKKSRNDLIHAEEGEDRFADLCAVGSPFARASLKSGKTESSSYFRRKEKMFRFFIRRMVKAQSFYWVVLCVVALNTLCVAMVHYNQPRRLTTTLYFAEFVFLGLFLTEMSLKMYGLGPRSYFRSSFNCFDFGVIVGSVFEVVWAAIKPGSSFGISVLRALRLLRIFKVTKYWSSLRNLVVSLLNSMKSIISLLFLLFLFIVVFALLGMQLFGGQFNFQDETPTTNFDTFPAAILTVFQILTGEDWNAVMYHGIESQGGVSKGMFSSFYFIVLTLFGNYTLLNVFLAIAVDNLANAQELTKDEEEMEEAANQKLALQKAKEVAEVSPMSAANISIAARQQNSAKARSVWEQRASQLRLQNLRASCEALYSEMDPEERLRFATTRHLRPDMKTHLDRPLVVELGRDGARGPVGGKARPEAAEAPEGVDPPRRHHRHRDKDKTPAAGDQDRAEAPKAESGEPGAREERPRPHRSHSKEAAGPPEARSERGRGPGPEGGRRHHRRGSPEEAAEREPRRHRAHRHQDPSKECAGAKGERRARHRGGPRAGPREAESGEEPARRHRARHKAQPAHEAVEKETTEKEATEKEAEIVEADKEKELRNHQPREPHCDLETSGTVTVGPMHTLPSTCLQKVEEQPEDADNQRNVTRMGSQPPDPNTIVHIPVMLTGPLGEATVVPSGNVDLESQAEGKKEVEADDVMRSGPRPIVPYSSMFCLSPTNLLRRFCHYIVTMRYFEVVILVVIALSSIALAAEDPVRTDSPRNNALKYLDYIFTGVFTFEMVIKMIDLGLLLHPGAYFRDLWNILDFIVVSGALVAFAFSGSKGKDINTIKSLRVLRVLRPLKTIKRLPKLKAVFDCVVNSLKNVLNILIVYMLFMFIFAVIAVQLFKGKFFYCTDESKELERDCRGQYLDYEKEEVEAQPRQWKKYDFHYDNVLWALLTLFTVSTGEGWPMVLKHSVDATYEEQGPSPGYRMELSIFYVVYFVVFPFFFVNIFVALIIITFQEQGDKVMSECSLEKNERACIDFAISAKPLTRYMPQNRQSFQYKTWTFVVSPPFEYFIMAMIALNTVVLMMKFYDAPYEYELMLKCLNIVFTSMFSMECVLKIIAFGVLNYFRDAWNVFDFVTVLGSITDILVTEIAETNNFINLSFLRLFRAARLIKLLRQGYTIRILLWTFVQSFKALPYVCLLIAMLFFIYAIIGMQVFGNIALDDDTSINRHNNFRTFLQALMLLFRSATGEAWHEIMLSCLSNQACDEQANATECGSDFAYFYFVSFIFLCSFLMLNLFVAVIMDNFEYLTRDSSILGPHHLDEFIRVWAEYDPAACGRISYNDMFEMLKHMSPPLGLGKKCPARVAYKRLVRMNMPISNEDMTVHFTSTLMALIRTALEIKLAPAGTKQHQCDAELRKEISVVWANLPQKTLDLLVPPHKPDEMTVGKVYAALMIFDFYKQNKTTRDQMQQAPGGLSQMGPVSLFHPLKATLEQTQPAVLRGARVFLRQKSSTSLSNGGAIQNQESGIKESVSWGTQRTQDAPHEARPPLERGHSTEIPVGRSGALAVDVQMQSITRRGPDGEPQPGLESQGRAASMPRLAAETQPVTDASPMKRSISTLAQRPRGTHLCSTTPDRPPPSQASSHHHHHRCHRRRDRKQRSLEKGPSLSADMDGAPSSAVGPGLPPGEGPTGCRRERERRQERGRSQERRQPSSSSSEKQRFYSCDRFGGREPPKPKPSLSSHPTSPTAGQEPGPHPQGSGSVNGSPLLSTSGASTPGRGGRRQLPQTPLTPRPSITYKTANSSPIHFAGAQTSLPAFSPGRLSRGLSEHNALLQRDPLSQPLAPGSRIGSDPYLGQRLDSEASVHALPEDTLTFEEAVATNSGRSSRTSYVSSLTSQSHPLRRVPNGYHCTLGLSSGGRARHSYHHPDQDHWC
T5 sequence (Q02410 whole entry): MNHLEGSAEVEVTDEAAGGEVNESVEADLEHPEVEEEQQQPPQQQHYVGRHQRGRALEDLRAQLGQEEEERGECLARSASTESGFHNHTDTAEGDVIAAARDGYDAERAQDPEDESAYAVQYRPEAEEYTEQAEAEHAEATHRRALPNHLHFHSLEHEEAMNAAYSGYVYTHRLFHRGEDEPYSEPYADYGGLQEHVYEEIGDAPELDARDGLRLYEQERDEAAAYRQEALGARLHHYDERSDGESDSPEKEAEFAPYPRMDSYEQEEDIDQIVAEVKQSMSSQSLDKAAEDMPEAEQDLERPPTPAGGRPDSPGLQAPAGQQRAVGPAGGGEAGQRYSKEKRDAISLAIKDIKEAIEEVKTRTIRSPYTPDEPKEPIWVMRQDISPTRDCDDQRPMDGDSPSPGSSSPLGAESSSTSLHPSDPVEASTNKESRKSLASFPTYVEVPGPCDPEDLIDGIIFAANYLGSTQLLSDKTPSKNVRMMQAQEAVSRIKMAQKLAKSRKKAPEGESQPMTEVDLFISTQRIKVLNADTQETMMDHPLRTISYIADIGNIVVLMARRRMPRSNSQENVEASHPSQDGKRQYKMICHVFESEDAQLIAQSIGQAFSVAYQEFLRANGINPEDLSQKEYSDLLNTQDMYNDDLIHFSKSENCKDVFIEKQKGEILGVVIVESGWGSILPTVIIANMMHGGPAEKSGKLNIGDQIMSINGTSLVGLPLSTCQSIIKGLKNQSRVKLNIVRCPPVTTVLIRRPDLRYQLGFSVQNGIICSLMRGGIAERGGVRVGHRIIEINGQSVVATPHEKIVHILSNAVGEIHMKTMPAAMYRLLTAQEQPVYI

[20] = target: T6, Low molecular weight phosphotyrosine protein phosphatase (Homo sapiens, UniProt P24666); assay type: functional; conditions: read-out: IC50_Mean;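 note: Dose-response confirmation assay measuring inhibition of LMPTP enzyme activity by fluorescence intensity read-out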
T6 sequence (P24666 whole entry): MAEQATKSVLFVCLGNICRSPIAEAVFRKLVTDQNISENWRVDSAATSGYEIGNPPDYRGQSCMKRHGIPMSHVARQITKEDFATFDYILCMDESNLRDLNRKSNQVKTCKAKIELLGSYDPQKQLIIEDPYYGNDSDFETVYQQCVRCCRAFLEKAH

[21] = target: T5, Voltage-gated N-type calcium channel alpha-1B subunit/Amyloid beta A4 precursor protein-binding family A member 1; assay type: protein assay; remark: listed apart in the source
[22] = viability of uninfected HEp-2 cells – cell-based, HTS, cytotoxicity control for RSV inhibitor project, dose response (AID 2410); assay type: functional; conditions: human respiratory syncytial virus
[23] = target: Interleukin-8 (Homo sapiens, UniProt P10145); experiment: Dose Response confirmation of uHTS small molecule hits for cystic fibrosis induced NFkb Inhibitors in a PAF-induced IL8 counterscreen.; assay type: functional; conditions: read-out: IC50_Mean
Interleukin-8, sequence (P10145 whole entry): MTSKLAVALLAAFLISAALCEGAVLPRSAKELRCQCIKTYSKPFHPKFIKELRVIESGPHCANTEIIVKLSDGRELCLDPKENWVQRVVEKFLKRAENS

## Cc1ccc(OCCN2CCN(c3ncnc4sc(C)c(C)c34)CC2)cc1
[1]
  AC50: 2.36 µM (active)
[2]
  AC50: 13.6 µM (active)
[3]
  IC50: > 80 µM (inactive)
[4]
  CC50: > 40 µM (active)
[5]
  AC50: 1.78 µM (active)
[6]
  IC50: > 80 µM (inactive)
[7]
  IC50: 0.282 µM (active)
[8]
  AC50: 0.754 µM (active)
[9]
  AC50: 2.05 µM (active)
[10]
  AC50: 1.5 µM (active)
[11]
  IC50: 4.98 µM (active)
[12]
  AC50: 33.6 µM (active)

## Cc1cccc(C2c3[nH]c4ccccc4c3CCN2C(=O)CN2CCOC2=O)n1 (stereo not drawn)
[13]
  AC50: 7.05 µM (active)

## CC(C)(C)c1ccc(/C=N/N2CCN(c3ccccn3)CC2)cc1
[14]
  AC50: 91.5 µM (active)

## COc1ccccc1C(=O)N1CCN(c2cc(-c3ccccc3)nc3cc(-c4cccc(Cl)c4)nn23)CC1
[15]
  EC50: 4.13 µM (active)
[16]
  EC50: 2.97 µM (active)

## NS(=O)(=O)c1ccc(CNC(=O)Cc2cccs2)cc1
[17]
  IC50: 56.1 µM (inactive)
[18]
  IC50: 4.18 µM (active)
[19]
  IC50: > 50 µM (inactive)
[20]
  IC50: 20.7 µM (inactive)
[21]
  IC50: 3.86 µM (active)

## CC(C)C[C@H](CO)Nc1nc(Nc2cccc(Cl)c2)c2ncn(C(C)C)c2n1
[22]
  CC50: 44.4 µM (active)
[23]
  IC50: 5.97 µM (active)
